Test results published in paper PMC3908613 (Bioscience Reports, 2014).

What was measured:
BMDC = assay: FITC-dextran uptake (macropinocytosis) by BMDC; assay type: cell-based, C57BL/6 mice; conditions: LPS 50 ng/ml, FITC-dextran 1 mg/ml; Akt-i at 1 μM
Experimental: DCs were generated from the bone marrow or the spleen of C57BL/6 mice as previously described. Briefly, bone marrow cells were cultured for 7 days at 37°C, 5% (v/v) CO2 in complete RPMI medium supplemented with 10 ng/ml recombinant granulocyte–macrophage colony-stimulating factor (GM-CSF; Peprotech). Spleen cells were cultured for 14 days at 37°C, 5% CO2 in complete RPMI containing 10 ng/ml GM-CSF and 1 ng/ml TGFβ (transforming growth factor-β; R&D Systems). NIH3T3 cells (European Cell Culture Collection) were cultured in DMEM (Dulbecco's modified Eagle's medium) supplemented with glutamine, penicillin, streptomycin and 10% (v/v) calf serum (Invitrogen).
FITC-dextran uptake was measured as described. […] In some experiments, cells were pre-treated with 1 μM Akt-i (Merck) for 30 min. Cells were left unstimulated or were stimulated with 50 ng/ml LPS for 20 min at 37°C followed by the addition of 1 mg/ml FITC dextran (Invitrogen) for 10 min at 37°C. Cells were washed four times at 4°C in PBS supplemented with 2% (v/v) FCS (foetal calf serum) and then stained with APC (allophycocyanin)-labelled anti-CD11c antibody (BD biosciences). FITC dextran uptake was measured on an FACS Calibur (BD biosciences).

Erk1/2 = molecular target: T1, Erk1/2 (Mus musculus, UniProt P63085); assay: Desthiobiotin-ATP probe capture on streptavidin beads, Western blot; assay type: binding, C57BL/6 mice; conditions: 10 μM inhibitor, DC lysate
T1 construct: recovered on streptavidin beads following desthiobiotin-ATP labelling of DC lysates including Rsk2, Erk1/2 and p38; endogenous in cells; host or cells: mouse spleen-derived dendritic cells (SDC), lysate
Experimental: (§1) SDC were cultured for at least 14 days in RPMI (without arginine and lysine, custom-made by Biosera) containing 10% dialysed FCS (Hyclone) supplemented with 84 mg/l of L-arginine (Sigma) and 40 mg/l L-lysine (Sigma) for the 'light' medium or 84 mg/l of […] or ^13C10 and 40 mg/l […] (Cambridge Isotope Laboratory) for the 'heavy' medium. Equal numbers (2×10^7) of 'light' or 'heavy' labelled SDCs were incubated in RPMI containing 0.5% FCS for 3 h in 15 cm dishes. The cells were lysed in the lysis buffer provided in the kit (Pierce). […] Labelling with the desthiobiotin ATP probe, and precipitation with streptavidin beads were performed according to the manufacturer's instructions (Pierce kinase enrichment kit or ActivXTM).

p38 = assay: as above; assay type: binding, C57BL/6 mice; conditions: 10 μM inhibitor, DC lysate
Experimental: as §1

Aurora B = conditions: cited from earlier work

T1 sequence (P63085 2-358): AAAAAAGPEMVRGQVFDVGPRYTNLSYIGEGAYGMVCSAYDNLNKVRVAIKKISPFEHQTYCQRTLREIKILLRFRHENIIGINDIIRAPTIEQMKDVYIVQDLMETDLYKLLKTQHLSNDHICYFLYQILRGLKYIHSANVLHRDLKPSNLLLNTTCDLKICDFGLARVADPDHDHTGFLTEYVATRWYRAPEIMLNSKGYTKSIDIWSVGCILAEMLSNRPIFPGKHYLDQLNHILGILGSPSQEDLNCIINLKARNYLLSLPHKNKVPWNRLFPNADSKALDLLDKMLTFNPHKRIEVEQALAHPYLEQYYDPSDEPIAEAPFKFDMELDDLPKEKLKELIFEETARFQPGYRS

In the case of `CC(C)CCN1c2nc(Nc3cc(F)c(O)c(F)c3)ncc2N(C)C(=O)C1C` (stereo not shown) [D1870, BI-D1870], the LPS-mediated dextran uptake (BMDC) is reported as “completely blocked”, the “capture of Erk1/2 on streptavidin beads” value (Erk1/2) is reported as “not Erk1/2 or p38, was blocked” and the “capture of p38 on streptavidin beads” value (p38) is reported as “not Erk1/2 or p38, was blocked”. The IC50 (Aurora B) was 340 nM.
